This is an account of results in patent US10821115B2, “Compounds that inhibit Mcl-1 protein” (priority 2017, dated 2020).

Where two headings read alike, the source gives them in different places.

For assay [1], the target named is recombinant human Mcl-1 (residues 171-327) / Bim interaction (Homo sapiens (Human), UniProt Q07820). Briefly: biochemical. It is filed as binding. The note with it: read-out: Mcl-1 HTRF IC50. A general note: TR-FRET usually uses a lanthanide donor and a delayed reading to cut background.
Sequence of recombinant human Mcl-1 (residues 171-327) / Bim interaction (Q07820 171-327): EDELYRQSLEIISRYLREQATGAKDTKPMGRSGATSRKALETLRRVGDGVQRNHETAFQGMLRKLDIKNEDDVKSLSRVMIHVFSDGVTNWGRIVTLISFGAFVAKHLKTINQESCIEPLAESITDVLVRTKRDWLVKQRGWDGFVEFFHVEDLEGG
Assay [2] concerns human multiple myeloma cell line, OPM-2. The experiment in a line: Cell viability assay (OPM-2 10 FBS), CellTiter-Glo. The class given is cell-based. The method in brief: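 IC50 values come from 4-parameter logistic fits of luminescence signals reflecting cell viability. Treatment lasted 16 h at 37 °C in complete medium with 10% FBS, starting from 3000 cells/well.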
Background: In ATP-based viability assays light output follows the ATP content of the culture.

[3] abbreviates: TR-FRET, Mcl-1(171-327) / biotin-Bim (51-76).
Where [4] appears, read: Homo sapiens, OPM-2, 16 h, read-out: OPM-2 10% FBS IC50 IP, OPM-2 cells, 10% FBS, 16 h, CellTiter-Glo.
[5] abbreviates: read-out: OPM-2 10% FBS IC50 IP, OPM-2 cells, 10% FBS, 16 h, CellTiter-Glo.
Where [6] appears, read: 0.1 nM Mcl-1(171-327), 0.05 nM biotin-Bim (51-76).
Where [7] appears, read: Homo sapiens, OPM-2, 16 h, read-out: OPM-2 10% FBS IC50 IP, OPM-2 cells, 10% FBS, 16 h incubation.
[8] abbreviates: read-out: OPM-2 10% FBS IC50 IP, OPM-2 cells, 10% FBS, 16 h incubation.

The IC50 is the concentration at which inhibition is half-maximal. With `CO[C@@]1(CC2=NC(C)(C)C(=O)O2)/C=C/C[C@H](C)[C@@H](C)S(=O)(=O)NC(=O)c2ccc3c(c2)N(C[C@@H]2CC[C@H]21)C[C@@]1(CCCc2cc(Cl)ccc21)CO3` [Example 100547, (1S,3′R,6′R,7′S,8′E,11′S,12′R)-6-chloro-7′-((4,4-dimethyl-5-oxo-4,5-dihydro-1,3-oxazol-2-yl)methyl)-7′-methoxy-11′,12′-dimethyl-3,4-dihydro-2H,15′H-spiro[naphthalene-1,22′-[20]oxa[13]thia[1,14]diazatetracyclo [14.7.2.0~3,6~.0~19,24~]pentacosa[8,16,18,24]tetraen]-15′-one 13′,13′-dioxide], the IC50 worked out at 0.031 nM in assay [1] (setting [3]) and 1860 nM in assay [2] (setting [4]).

With `CO[C@@]1(CC(=O)c2ccccc2)/C=C/C[C@H](C)[C@@H](C)S(=O)(=O)NC(=O)c2ccc3c(c2)N(C[C@@H]2CC[C@H]21)C[C@@]1(CCCc2cc(Cl)ccc21)CO3` [Example 100458, (1S,3′R,6′R,7′S,8′E,11′S,12′R)-6-chloro-7′-methoxy-11′,12′-dimethyl-7′-(2-oxo-2-phenylethyl)-3,4-dihydro-2H,15′H-spiro[naphthalene-1,22′-[20]oxa[13]thia[1,14]diazatetracyclo [14.7.2.0~3,6~.0~19,24~]pentacosa[8,16,18,24]tetraen]-15′-one 13′,13′-dioxide], the half-inhibitory concentration (IC50) in assay [1] (setting [3]) stood at 0.21 nM; in assay [2] (setting [4]), 418 nM.

Consider `CO[C@@]1(Cc2ncc(C)o2)/C=C/C[C@H](C)[C@@H](C)S(=O)(=O)NC(=O)c2ccc3c(c2)N(C[C@@H]2CC[C@H]21)C[C@@]1(CCCc2cc(Cl)ccc21)CO3` [Example 100529, (1S,3′R,6′R,7′S,8′E,11′S,12′R)-6-chloro-7′-methoxy-11′,12′-dimethyl-7′-((5-methyl-1,3-oxazol-2-yl)methyl)-3,4-dihydro-2H,15′H-spiro[naphthalene-1,22′-[20]oxa[13]thia[1,14]diazatetracyclo [14.7.2.0~3,6~.0~19,24~]pentacosa[8,16,18,24]tetraen]-15′-one 13′,13′-dioxide], for which the IC50 in assay [1] (setting [3]) is 0.287 nM; in assay [2] (setting [4]), 245 nM.

Take `CCOP(=O)(OCC)C(F)(F)[C@]1(O)/C=C/C[C@H](C)[C@@H](C)S(=O)(=O)NC(=O)c2ccc3c(c2)N(C[C@@H]2CC[C@H]21)C[C@@]1(CCCc2cc(Cl)ccc21)CO3` [Example 100067, diethyl (((1S,3′R,6′R,7′S,8′E,11′S,12′R)-6-chloro-7′-hydroxy-11′,12′-dimethyl-13′,13′-dioxido-15′-oxo-3,4-dihydro-2H-spiro[naphthalene-1,22′-[20]oxa[13]thia[1,14]diazatetracyclo [14.7.2.0~3,6~.0~19,24~]pentacosa[8,16,18,24]tetraen]-7′-yl)(difluoro)methyl)phosphonate]: the IC50 came out at 1.01 nM in assay [1] (setting [3]) and 271 nM in assay [2] (setting [5]).

As to `CO[C@]1(CCN2CCCCC2)/C=C/C[C@H](C)[C@@H](C)S(=O)(=O)NC(=O)c2ccc3c(c2)N(C[C@@H]2CC[C@H]21)C[C@@]1(CCCc2cc(Cl)ccc21)CO3` [Example 100449, (1S,3′R,6′R,7′R,8′E,11′S,12′R)-6-chloro-7′-methoxy-11′,12′-dimethyl-7′-(2-(1-piperidinyl)ethyl)-3,4-dihydro-2H,15′H-spiro[naphthalene-1,22′-[20]oxa[13]thia[1,14]diazatetracyclo [14.7.2.0~3,6~.0~19,24~]pentacosa[8,16,18,24]tetraen]-15′-one 13′,13′-dioxide], the IC50 in assay [1] (setting [3]) was determined as 0.071 nM; in assay [2] (setting [4]), 171 nM.

Take `CCO[C@]1(CN2CCN(C3COC3)CC2)/C=C/[C@H](C)[C@H](C)CS(=O)(=O)NC(=O)c2ccc3c(c2)N(C[C@@H]2CC[C@H]21)C[C@@]1(CCCc2cc(Cl)ccc21)CO3` [Example 166, (1S,3′R,6′R,7′R,8′E,10′S,11′S)-6-chloro-7′-ethoxy-10′,11′-dimethyl-7′-((4-(3-oxetanyl)-1-piperazinyl)methyl)-3,4-dihydro-2H,15′H-spiro[naphthalene-1,22′-[20]oxa[13]thia[1,14]diazatetracyclo [14.7.2.0~3,6~.0~19,24~]pentacosa[8,16,18,24]tetraen]-15′-one 13′,13′-dioxide]: the IC50 is 0.107 nM in assay [1] (setting [6]) and 50 nM in assay [2] (setting [7]).

`CO[C@@]1(c2cncnc2)/C=C/C[C@H](C)[C@@H](C)S(=O)(=O)NC(=O)c2ccc3c(c2)N(C[C@@H]2CC[C@H]21)C[C@@]1(CCCc2cc(Cl)ccc21)CO3` [Example 100468, (1S,3′R,6′R,7′S,8′E,11′S,12′R)-6-chloro-7′-methoxy-11′,12′-dimethyl-7′-(5-pyrimidinyl)-3,4-dihydro-2H,15′H-spiro[naphthalene-1,22′-[20]oxa[13]thia[1,14]diazatetracyclo [14.7.2.0~3,6~.0~19,24~]pentacosa[8,16,18,24]tetraen]-15′-one 13′,13′-dioxide]: the IC50 in assay [1] (setting [3]) was determined as 0.393 nM; in assay [2] (setting [4]) it was 943 nM.

Take `C[C@@H]1[C@@H](C)C/C=C/[C@@](C)(OCCN2CCOCC2)[C@@H]2CC[C@H]2CN2C[C@@]3(CCCc4cc(Cl)ccc43)COc3ccc(cc32)C(=O)NS1(=O)=O` [Example 100467, (1S,3′R,6′R,7′R,8′E,11′S,12′R)-6-chloro-7′,11′,12′-trimethyl-7′-(2-(4-morpholinyl)ethoxy)-3,4-dihydro-2H,15′H-spiro[naphthalene-1,22′-[20]oxa[13]thia[1,14]diazatetracyclo [14.7.2.0~3,6~.0~19,24~]pentacosa[8,16,18,24]tetraen]-15′-one 13′,13′-dioxide]: the IC50 in assay [1] (setting [3]) turned out to be 0.303 nM; in assay [2] (setting [4]) it was 516 nM.

In the case of `C[C@@H]1[C@@H](C)C/C=C/[C@](O)(CC(=O)N(C)c2ccccc2)[C@@H]2CC[C@H]2CN2C[C@@]3(CCCc4cc(Cl)ccc43)COc3ccc(cc32)C(=O)NS1(=O)=O` (single isomer, unassigned) [Example 100248], the results for the IC50 in assay [1] (setting [3]) and in assay [2] (setting [4]) were 11.1 nM and 6680 nM, respectively.

As to `CO[C@]1(CN2CC[C@H]3CCCC[C@@H]3C2)/C=C/C[C@H](C)[C@@H](C)S(=O)(=O)NC(=O)c2ccc3c(c2)N(C[C@@H]2CC[C@H]21)C[C@@]1(CCCc2cc(Cl)ccc21)CO3` (single isomer, unassigned) [Example 89], the IC50 in assay [1] (setting [6]) was 3.75 nM; in assay [2] (setting [8]), 8210 nM.

`CO[C@@]1(CN2CCN3CCCC[C@@H]3C2)/C=C/C[C@H](C)[C@@H](C)S(=O)(=O)NC(=O)c2ccc3c(n2)N(C[C@@H]2CC[C@H]21)C[C@@]1(CCCc2cc(Cl)ccc21)CO3` [Example 372, (1S,3′R,6′R,7′S,8′E,11′S,12′R)-6-chloro-7′-methoxy-11′,12′-dimethyl-7′-((9aR)-octahydro-2H-pyrido[1,2-a]pyrazin-2-ylmethyl)-3,4-dihydro-2H,15′H-spiro[naphthalene-1,22′-[20]oxa[13]thia[1,14,25]triazatetracyclo [14.7.2.0~3,6~.0~19,24~]pentacosa[8,16,18,24]tetraen]-15′-one 13′,13′-dioxide]: the IC50 is 0.175 nM in assay [1] (setting [6]) and 85 nM in assay [2] (setting [7]).

In the case of `CO[C@@]1(CO)CCC[C@H](C)[C@@H](C)S(=O)(=O)NC(=O)c2ccc3c(c2)N(C[C@@H]2CC[C@H]21)C[C@@]1(CCCc2cc(Cl)ccc21)CO3` (stereo in doubt) [Example 100133, (1S,3′R,6′R,7′S,11′S,12′R)-6-chloro-7′-(hydroxymethyl)-7′-methoxy-11′,12′-dimethyl-3,4-dihydro-2H,15′H-spiro[naphthalene-1,22′-[20]oxa[13]thia[1,14]diazatetracyclo [14.7.2.0~3,6~.0~19,24~]pentacosa[16,18,24]rien]-15′-one 13′,13′-dioxide], the IC50 was found to be 0.885 nM in assay [1] (setting [3]) and 984 nM in assay [2] (setting [5]).

`COCCN(CCOC)C1CN(C[C@]2(OC)/C=C/C[C@H](C)[C@@H](C)S(=O)(=O)NC(=O)c3ccc4c(c3)N(C[C@@H]3CC[C@H]32)C[C@@]2(CCCc3cc(Cl)ccc32)CO4)C1` [Example 344, (1S,3′R,6′R,7′S,8′E,11′S,12′R)-7′-((3-(bis(2-methoxyethyl)amino)-1-azetidinyl)methyl)-6-chloro-7′-methoxy-11′,12′-dimethyl-3,4-dihydro-2H,15′H-spiro[naphthalene-1,22′-[20]oxa[13]thia[1,14]diazatetracyclo [14.7.2.0~3,6~.0~19,24~]pentacosa[8,16,18,24]tetraen]-15′-one 13′,13′-dioxide]: the IC50 in assay [1] (setting [6]) came out at 0.116 nM; in assay [2] (setting [7]) it was 57 nM.

With `COC[C@@]1(O)CCC[C@H](C)[C@@H](C)S(=O)(=O)NC(=O)c2ccc3c(c2)N(C[C@@H]2CC[C@H]21)C[C@@]1(CCCc2cc(Cl)ccc21)CO3` [Example 100150, (1S,3′R,6′R,7′R,11′S,12′R)-6-chloro-7′-hydroxy-7′-(methoxymethyl)-11′,12′-dimethyl-3,4-dihydro-2H,15′H-spiro[naphthalene-1,22′-[20]oxa[13]thia[1,14]diazatetracyclo [14.7.2.0~3,6~.0~19,24~]pentacosa[16,18,24]trien]-15′-one 13′,13′-dioxide], the values for the IC50 in assay [1] (setting [3]) and in assay [2] (setting [4]) were 1.69 nM and 1430 nM, respectively.

In the case of `COc1ncccc1[C@@]1(O)/C=C/C[C@H](C)[C@@H](C)S(=O)(=O)NC(=O)c2ccc3c(c2)N(C[C@@H]2CC[C@H]21)C[C@@]1(CCCc2cc(Cl)ccc21)CO3` (single isomer, unassigned) [Example 100333], the IC50 stood at 2.1 nM in assay [1] (setting [3]) and 2170 nM in assay [2] (setting [4]).

Turning to `CO[C@]1(CN2CCN3CCCC[C@@H]3C2)/C=C/C[C@H](C)[C@@H](C[C@H](C)O)S(=O)(=O)NC(=O)c2ccc3c(c2)N(C[C@@H]2CC[C@H]21)C[C@@]1(CCCc2cc(Cl)ccc21)CO3` (single isomer, unassigned) [Example 363], the IC50 was 0.08 nM in assay [1] (setting [6]) and 101 nM in assay [2] (setting [8]).
